The target of assay [1] is T1, KCC3 (Homo sapiens, UniProt Q9UHW9).
T1 construct: expressed in transfected cells; host or cells: HEK-293
T1 sequence (Q9UHW9 1-1150): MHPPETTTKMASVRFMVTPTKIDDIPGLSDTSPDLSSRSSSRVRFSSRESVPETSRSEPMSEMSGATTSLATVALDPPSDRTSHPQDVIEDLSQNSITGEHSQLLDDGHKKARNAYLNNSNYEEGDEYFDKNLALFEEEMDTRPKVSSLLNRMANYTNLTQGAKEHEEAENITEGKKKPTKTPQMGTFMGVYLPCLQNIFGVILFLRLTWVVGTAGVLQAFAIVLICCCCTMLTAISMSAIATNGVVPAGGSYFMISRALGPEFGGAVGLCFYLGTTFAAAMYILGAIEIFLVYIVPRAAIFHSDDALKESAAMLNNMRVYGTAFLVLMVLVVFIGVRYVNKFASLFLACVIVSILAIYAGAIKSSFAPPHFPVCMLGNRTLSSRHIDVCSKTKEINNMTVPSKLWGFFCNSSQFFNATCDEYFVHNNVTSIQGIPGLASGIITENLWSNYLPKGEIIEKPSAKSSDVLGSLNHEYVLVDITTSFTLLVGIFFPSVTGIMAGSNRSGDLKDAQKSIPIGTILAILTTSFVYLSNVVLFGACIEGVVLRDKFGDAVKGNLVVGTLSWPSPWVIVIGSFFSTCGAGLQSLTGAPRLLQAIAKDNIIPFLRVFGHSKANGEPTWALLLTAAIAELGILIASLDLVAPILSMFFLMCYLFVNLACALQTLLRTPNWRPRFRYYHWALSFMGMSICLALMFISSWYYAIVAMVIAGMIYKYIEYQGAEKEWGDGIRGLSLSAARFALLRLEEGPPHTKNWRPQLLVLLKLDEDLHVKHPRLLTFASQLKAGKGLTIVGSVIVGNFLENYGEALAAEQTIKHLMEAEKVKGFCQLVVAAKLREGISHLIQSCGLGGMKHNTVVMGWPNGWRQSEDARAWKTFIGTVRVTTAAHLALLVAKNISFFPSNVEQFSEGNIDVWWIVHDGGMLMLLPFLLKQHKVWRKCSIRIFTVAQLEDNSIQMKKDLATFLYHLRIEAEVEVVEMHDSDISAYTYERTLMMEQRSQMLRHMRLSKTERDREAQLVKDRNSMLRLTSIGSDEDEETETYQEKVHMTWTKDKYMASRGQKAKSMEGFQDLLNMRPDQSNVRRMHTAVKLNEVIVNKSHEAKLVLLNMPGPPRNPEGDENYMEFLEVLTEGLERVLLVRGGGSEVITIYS
In words: Tl+ flux assay, HEK-293 cells expressing KCC3. The format is cell-based. Conditions: read-out: concentration at which effects on KCC3 were seen. The method, then:
(§1) FLIPR TI Flux assay. HEK-293 cells were washed with HBSS, and then incubated with loading buffer containing TI sensitive fluorescent dye (https://www.moleculardevices.com), 20 μM bumetanide 20 μM ouabain and 2.5 mM probenecid for 1 h at room temperature (RT) under control conditions or with drugs in the dark using a FlexStation 3 microplate reader (Molecular Devices) and imaged […] for 30 min. Stimulus buffer was added containing 5 mM K^+/0.5 mM Tl^+ and cells were imaged every 1.5 over a 190 second time course The initial rate Tl^+ uptake (Relative Fluorescence Units (RFU) per second) was determined following addition of the stimulus buffer as outlined previously (Conway et al., 2017, supra) (Lee et al., 2022, supra).
(§2) Compared to KCC2, effects on KCC3, KCC4, and NKCC1 were only seen at concentrations more than 35-fold that of KCC2 (>100 μM) (FIG. 1G).

Assay [2] concerns the target T2, KCC4 (Homo sapiens, UniProt Q9Y666).
T2 construct: expressed in transfected cells; host or cells: HEK-293
T2 sequence (Q9Y666 1-1083): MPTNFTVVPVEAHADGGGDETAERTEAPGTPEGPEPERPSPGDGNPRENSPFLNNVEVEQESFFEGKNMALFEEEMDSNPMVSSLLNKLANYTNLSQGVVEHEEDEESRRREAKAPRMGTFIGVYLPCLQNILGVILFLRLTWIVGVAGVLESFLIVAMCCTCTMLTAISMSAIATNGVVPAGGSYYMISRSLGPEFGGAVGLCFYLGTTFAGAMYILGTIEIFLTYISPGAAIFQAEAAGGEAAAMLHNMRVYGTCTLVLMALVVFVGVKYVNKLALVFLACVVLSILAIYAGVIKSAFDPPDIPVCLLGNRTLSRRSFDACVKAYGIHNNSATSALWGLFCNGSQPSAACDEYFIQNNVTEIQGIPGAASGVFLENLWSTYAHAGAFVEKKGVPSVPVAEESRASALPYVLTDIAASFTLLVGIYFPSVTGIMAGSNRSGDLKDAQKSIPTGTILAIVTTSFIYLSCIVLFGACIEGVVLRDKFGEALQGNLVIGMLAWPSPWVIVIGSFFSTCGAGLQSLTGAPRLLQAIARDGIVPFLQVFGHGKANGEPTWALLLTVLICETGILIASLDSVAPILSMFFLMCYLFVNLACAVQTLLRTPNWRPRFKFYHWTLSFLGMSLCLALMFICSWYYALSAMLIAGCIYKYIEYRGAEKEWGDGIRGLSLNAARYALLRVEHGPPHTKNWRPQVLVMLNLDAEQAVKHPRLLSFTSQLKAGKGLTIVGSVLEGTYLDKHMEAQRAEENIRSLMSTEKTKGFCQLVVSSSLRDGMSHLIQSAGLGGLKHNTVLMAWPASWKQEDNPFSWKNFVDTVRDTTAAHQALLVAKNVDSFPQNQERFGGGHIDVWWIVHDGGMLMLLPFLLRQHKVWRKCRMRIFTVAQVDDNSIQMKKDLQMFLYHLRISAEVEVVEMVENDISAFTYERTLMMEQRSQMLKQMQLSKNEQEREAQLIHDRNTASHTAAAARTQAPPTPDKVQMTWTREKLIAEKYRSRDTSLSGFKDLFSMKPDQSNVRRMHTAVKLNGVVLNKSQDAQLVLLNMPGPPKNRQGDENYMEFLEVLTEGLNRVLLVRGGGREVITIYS
In words: Tl+ flux assay, HEK-293 cells expressing KCC4. Conditions: read-out: concentration at which effects on KCC4 were seen. Format: cell-based. The procedure: as §1, §2

Turning to `C[C@@H]1CN(c2nc3c(c(Nc4ccc(C5CCCCC5)cc4)n2)COC3)CCO1` [Compound A, (R)—N-(4-cyclohexylphenyl)-2-(2-methylmorpholino)-5,7-dihydrofuro[3,4-d]pyrimidin-4-amine], the EC50 in assay [1] and in assay [2] was above 100 µM throughout.
